Test results as given in patent US6174914A, “Method of inhibiting cytokine release from human ocular cells” (Alcon Laboratories, Inc., priority 1999, dated 2001).
Counter-ions that a name gives are not always drawn.

What was measured:
[1] = system: IL-6 secretion in human conjunctival epithelial cells; test: Inhibition of histamine-stimulated IL-6 secretion from cultured human conjunctival epithelial cells (ELISA); assay type: cell-based; conditions: for potency in intact cells / inhibition of secretion compared with receptor binding: IL-6 and IL-8 secretion
From the text: Methods detailing the preparation of primary epithelial cell cultures and cytokine release studies using these cells have been described. […] Briefly, cultures of human conjunctival epithelial cells were initiated from donor tissues obtained within eight hours post mortem by various eye banks. The tissues were enzymatically digested overnight. Epithelial cells were gently scraped from the tissue surface, dissociated into a single cell suspension, and cultured in keratinocyte growth medium (Clonetics®, San Diego, Calif.). Cells were used only through passage 6. Cultures were maintained in a preconfluent state to prevent differentiation.
Several compounds with histamine H1 antagonist activity were evaluated for their ability to inhibit secretion of cytokines (IL-6 and IL-8) from cultured human conjunctival epithelial cells in response to histamine stimulation. Cells were plated at 2×10^4 cells/well and cultured overnight at 5% CO2 /37° C. The following day, fresh medium containing test compound was added directly to wells and the cells were incubated for 30 minutes prior to 24-hour stimulation with histamine (30 μM). Three separate culture wells were used for each treatment group. At harvest, supernatants were collected, centrifuged at 200× g, and stored at -20° C. Samples were analyzed for IL-6 and IL-8 by ELISA (R&D Systems, Minneapolis, Minn.) as directed by the manufacturer. The sensitivities of each ELISA are as follows: IL-6 0.7 pg/ml and IL-8 3.0 pg/ml.
Data derived from the cytokine assays were calculated as mean and standard error (SEM) values which represent the variability among identically treated culture wells. The dose-dependent effect of pharmacological agents and IC50 's were determined by linear regression. Data are expressed as mean ±S.E.M. from 3-5 independent experiments.

[2] = cited from earlier work; for activity taught in U.S. Pat. Nos. 4,871,865 and 4,923,892: Burroughs Wellcome Patents
[3] = system: IL-8 secretion in human conjunctival epithelial cells; test: Inhibition of histamine-stimulated IL-8 secretion from cultured human conjunctival epithelial cells (ELISA); assay type: cell-based; conditions: Epithelial cell, 24 h, read-out: increase of IL-8 secretion above basal levels
From the text: Methods detailing the preparation of primary epithelial cell cultures and cytokine release studies using these cells have been described. See Gamache, et al., "Secretion of proinflammatory cytokines by human conjunctival epithelial cells," Ocul Immunol Inflamm., 5:117-128 (1997). Briefly, cultures of human conjunctival epithelial cells were initiated from donor tissues obtained within eight hours post mortem by various eye banks. The tissues were enzymatically digested overnight. Epithelial cells were gently scraped from the tissue surface, dissociated into a single cell suspension, and cultured in keratinocyte growth medium (Clonetics®, San Diego, Calif.). Cells were used only through passage 6. Cultures were maintained in a preconfluent state to prevent differentiation. Cells were identified as epithelial by positive keratin staining.
Several compounds with histamine H1 antagonist activity were evaluated for their ability to inhibit secretion of cytokines (IL-6 and IL-8) from cultured human conjunctival epithelial cells in response to histamine stimulation. Cells were plated at 2×10^4 cells/well and cultured overnight at 5% CO2 /37° C. […] Samples were analyzed for IL-6 and IL-8 by ELISA (R&D Systems, Minneapolis, Minn.) as directed by the manufacturer. […]

[4] = IL-6 and IL-8 secretion versus H1 binding

C[C@@H]1CN([C@H]2CC[C@](C#N)(c3ccc(F)cc3)CC2)CC[C@]1(C(=O)O)c1ccccc1 [Levocabastine, (-)-trans-1-[cis-4-Cyano-4-(p-fluorophenyl)cyclohexyl]-3-methyl-4-phenylisonipecotic acid monohydrochloride]
potency in intact cells / inhibition of secretion compared with receptor binding [1]: at a level consistent with its H1 -receptor binding affinity

CN(C)CC/C=C1/c2ccccc2COc2ccc(CC(=O)O)cc21 [Olopatadine, Z-11-(3-Dimethylaminopropylidene)-6,11-dihydrodibenz[b,e]oxepin-2-acetic acid]
activity taught in U.S. Pat. No. 5,116,863 ([2]; Kyowa patent, Wistar male rats): anti-allergic and anti-inflammatory activity | more potent inhibitor of cytokine secretion than predicted from binding data [1, 4]: approximately 10 fold

c1ccc(CN(CC2=NCCN2)c2ccccc2)cc1 [Antazoline, 4,5-Dihydro-N-phenyl-N-(phenylmethyl)-1H-imidazole-2-methanamine]
less potent inhibitor of IL-6 and IL-8 secretion than predicted from histamine H1-receptor binding affinity [1, 4]: 20-140 fold

CN(C)CCC(c1ccccc1)c1ccccn1 (stereo not shown) [Pheniramine, N,N-Dimethyl-γ-phenyl-2-pyridine-propanamine]
less potent inhibitor of IL-6 and IL-8 secretion than predicted from histamine H1-receptor binding affinity [1, 4]: 20-140 fold

CN(C)CCC=C1c2ccccc2COc2ccc(/C=C/C(=O)O)cc21 [11-(3-dimethylamino-propylidene)-6,11-dihydrodibenz[b,e]oxepine-2(E)-acrylic acid]
activity taught in U.S. Pat. Nos. 4,871,865 and 4,923,892 [2]: antihistaminic and antiasthmatic activity

CN(C)CCC=C1c2ccccc2COc2ccc(C(=O)O)cc21 [11-(3-dimethylaminopropylidene)-6,11-dihydrodibenz[b,e]oxepine-2-carboxylic acid]
activity taught in U.S. Pat. Nos. 4,871,865 and 4,923,892 [2]: antihistaminic and antiasthmatic activity

NCCc1c[nH]cn1 [histamine]
fold induction at 30 µM [3]: 1.8 ± 0.28 | fold induction at 30 µM ([1]; Homo sapiens, Epithelial cell, 24 h, read-out: increase of IL-6 secretion above basal levels): 1.59 ± 0.19

CCOCCn1c(N2CCCN(C)CC2)nc2ccccc21 [Emedastine, 1H-Benzimidazole,1-(2-ethoxyethyl)-2-(hexahydro-4-methyl-1H-1,4-diazepin-1-yl),(E)-2-butenedioate (1:2)]
potency in intact cells / inhibition of secretion compared with receptor binding [1]: consistent with its activity determined in receptor binding assays
